Source: paper PMC3433743 (Bioorganic & medicinal chemistry letters, 2012)
“Also recorded” adds a separate entry of the source. Like-named read-outs stand apart in the source and are kept apart here.

How the values were obtained:
[1] = cited from earlier work
LRRK2[A2016T] = LRRK2[A2016T] (Homo sapiens, UniProt Q5S007, A2016T); assay: LRRK2 enzymatic assay, A2016T mutant; details: biochemical, Fig. 1
PHKã1(PBK) = PHKã1(PBK) (Homo sapiens, UniProt Q16816); assay: Radioactivity-based enzymatic kinase panel; details: read-out: Inhibition of kinase activity
CAMKKβ = CAMKKβ (Homo sapiens, UniProt Q96RR4); assay: Radioactivity-based enzymatic kinase panel; details: read-out: Inhibition of kinase activity
TSSK1 = molecular target: T1, TSSK1 (Homo sapiens, UniProt Q9BXA7); assay: Radioactivity-based enzymatic kinase panel; details: read-out: Inhibition of kinase activity
T1 sequence (Q9BXA7 1-367): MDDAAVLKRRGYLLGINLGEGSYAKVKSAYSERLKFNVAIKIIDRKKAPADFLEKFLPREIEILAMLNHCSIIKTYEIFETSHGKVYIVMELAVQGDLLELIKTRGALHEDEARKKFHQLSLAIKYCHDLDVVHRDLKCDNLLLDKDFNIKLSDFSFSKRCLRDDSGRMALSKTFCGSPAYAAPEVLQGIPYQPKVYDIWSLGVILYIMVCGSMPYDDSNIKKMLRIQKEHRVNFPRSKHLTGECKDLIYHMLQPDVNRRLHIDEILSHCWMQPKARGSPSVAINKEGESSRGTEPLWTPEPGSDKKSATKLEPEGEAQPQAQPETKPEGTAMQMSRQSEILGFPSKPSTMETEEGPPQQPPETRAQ

NUAK1 = molecular target: T2, NUAK1 (Homo sapiens, UniProt O60285); assay: Radioactivity-based enzymatic kinase panel; details: read-out: Inhibition of kinase activity
T2 sequence (O60285 1-661): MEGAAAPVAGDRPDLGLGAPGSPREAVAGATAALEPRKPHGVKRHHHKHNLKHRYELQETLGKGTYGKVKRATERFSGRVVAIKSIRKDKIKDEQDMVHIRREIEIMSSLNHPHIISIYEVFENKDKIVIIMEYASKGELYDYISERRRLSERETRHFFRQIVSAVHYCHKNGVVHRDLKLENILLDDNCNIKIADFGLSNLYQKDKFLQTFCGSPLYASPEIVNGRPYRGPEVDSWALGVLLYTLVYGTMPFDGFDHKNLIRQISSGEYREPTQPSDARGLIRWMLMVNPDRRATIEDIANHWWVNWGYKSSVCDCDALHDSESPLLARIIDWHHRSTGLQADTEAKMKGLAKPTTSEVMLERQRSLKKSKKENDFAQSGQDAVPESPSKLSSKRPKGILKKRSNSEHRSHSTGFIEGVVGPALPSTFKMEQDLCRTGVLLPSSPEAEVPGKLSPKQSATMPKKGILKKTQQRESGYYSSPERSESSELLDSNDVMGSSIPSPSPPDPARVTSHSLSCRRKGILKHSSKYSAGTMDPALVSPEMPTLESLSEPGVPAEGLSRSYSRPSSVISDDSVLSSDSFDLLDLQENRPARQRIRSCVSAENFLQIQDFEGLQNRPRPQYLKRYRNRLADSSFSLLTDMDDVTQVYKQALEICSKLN

endogenous LRRK2 = endogenous LRRK2 (Mus musculus, UniProt Q5S006); assay type: in vivo
CHK2 = CHK2 (Homo sapiens, UniProt O96017); assay: Radioactivity-based enzymatic kinase panel; details: read-out: Inhibition of kinase activity
GFP-LRRK2[A2016T] = GFP-LRRK2[A2016T] (Homo sapiens, UniProt Q5S007, A2016T); assay type: cell-based; details: HEK293, LRRK2[A2016T], 90 min
GFP-LRRK2[A2016T], sequence (Q5S007 whole entry A2016T): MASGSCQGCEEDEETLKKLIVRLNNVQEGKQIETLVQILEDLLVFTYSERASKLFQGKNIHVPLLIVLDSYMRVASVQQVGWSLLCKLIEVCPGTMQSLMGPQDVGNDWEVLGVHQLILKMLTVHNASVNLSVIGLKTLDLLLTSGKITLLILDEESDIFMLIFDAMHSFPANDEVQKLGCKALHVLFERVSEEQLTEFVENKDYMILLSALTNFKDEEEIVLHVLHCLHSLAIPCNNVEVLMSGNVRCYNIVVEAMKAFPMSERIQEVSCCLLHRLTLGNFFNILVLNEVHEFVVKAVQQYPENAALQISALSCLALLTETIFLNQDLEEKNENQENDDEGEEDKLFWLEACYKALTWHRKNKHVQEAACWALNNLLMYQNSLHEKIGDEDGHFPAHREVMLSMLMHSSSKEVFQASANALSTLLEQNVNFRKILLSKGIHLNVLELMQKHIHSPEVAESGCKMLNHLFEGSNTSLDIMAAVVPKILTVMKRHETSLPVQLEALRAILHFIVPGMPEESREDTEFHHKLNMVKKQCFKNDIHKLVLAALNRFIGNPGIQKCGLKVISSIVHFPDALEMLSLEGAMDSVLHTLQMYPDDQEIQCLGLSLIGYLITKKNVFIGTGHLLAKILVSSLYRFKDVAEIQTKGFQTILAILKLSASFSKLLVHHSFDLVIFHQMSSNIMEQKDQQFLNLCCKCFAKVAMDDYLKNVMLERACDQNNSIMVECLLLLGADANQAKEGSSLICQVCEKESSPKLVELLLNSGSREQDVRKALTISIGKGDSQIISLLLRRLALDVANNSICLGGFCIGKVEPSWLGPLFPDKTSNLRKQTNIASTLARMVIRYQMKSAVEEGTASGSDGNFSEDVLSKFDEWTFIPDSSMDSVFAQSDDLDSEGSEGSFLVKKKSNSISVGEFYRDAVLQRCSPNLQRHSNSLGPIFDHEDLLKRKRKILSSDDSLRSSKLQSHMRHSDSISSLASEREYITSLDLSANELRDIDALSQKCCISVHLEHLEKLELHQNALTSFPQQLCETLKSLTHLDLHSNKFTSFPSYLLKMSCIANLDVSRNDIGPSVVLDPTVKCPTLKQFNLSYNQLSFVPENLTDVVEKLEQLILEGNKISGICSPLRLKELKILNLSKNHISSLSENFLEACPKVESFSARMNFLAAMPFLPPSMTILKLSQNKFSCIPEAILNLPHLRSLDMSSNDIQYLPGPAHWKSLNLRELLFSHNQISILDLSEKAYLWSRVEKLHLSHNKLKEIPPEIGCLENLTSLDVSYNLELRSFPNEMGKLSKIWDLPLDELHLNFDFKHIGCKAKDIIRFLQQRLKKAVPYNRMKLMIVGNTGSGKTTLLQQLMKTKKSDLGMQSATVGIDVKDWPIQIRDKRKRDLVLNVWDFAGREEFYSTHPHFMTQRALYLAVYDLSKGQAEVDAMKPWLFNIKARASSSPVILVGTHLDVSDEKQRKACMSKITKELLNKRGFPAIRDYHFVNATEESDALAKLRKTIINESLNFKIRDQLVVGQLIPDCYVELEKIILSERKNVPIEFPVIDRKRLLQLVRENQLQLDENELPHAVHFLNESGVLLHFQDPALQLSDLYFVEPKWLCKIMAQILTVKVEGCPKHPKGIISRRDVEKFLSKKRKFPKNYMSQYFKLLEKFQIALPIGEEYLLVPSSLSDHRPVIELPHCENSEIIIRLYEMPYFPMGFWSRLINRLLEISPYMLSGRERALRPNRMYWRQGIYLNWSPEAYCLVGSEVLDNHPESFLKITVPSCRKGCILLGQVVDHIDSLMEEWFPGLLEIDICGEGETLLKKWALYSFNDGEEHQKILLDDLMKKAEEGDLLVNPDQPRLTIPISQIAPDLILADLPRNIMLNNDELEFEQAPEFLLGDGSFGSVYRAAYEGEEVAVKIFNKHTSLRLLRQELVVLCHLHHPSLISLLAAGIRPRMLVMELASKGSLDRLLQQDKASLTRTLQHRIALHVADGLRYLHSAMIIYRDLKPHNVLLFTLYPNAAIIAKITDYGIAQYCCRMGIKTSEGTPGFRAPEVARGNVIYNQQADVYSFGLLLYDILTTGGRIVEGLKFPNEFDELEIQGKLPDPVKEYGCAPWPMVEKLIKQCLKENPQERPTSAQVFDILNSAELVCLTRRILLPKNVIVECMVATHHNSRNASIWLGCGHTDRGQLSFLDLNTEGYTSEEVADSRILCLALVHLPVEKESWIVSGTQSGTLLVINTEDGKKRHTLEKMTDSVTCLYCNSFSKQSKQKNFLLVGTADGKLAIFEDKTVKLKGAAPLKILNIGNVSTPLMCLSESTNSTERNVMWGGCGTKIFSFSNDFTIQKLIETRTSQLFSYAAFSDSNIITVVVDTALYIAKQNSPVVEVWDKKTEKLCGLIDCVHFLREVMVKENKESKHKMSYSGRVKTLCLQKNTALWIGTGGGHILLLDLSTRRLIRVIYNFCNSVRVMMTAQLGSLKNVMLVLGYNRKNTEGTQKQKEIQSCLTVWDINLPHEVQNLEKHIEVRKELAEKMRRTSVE

LRRK2[A2016T], sequence (Q5S007 whole entry A2016T): as above
endogenous LRRK2, sequence (Q5S006 whole entry): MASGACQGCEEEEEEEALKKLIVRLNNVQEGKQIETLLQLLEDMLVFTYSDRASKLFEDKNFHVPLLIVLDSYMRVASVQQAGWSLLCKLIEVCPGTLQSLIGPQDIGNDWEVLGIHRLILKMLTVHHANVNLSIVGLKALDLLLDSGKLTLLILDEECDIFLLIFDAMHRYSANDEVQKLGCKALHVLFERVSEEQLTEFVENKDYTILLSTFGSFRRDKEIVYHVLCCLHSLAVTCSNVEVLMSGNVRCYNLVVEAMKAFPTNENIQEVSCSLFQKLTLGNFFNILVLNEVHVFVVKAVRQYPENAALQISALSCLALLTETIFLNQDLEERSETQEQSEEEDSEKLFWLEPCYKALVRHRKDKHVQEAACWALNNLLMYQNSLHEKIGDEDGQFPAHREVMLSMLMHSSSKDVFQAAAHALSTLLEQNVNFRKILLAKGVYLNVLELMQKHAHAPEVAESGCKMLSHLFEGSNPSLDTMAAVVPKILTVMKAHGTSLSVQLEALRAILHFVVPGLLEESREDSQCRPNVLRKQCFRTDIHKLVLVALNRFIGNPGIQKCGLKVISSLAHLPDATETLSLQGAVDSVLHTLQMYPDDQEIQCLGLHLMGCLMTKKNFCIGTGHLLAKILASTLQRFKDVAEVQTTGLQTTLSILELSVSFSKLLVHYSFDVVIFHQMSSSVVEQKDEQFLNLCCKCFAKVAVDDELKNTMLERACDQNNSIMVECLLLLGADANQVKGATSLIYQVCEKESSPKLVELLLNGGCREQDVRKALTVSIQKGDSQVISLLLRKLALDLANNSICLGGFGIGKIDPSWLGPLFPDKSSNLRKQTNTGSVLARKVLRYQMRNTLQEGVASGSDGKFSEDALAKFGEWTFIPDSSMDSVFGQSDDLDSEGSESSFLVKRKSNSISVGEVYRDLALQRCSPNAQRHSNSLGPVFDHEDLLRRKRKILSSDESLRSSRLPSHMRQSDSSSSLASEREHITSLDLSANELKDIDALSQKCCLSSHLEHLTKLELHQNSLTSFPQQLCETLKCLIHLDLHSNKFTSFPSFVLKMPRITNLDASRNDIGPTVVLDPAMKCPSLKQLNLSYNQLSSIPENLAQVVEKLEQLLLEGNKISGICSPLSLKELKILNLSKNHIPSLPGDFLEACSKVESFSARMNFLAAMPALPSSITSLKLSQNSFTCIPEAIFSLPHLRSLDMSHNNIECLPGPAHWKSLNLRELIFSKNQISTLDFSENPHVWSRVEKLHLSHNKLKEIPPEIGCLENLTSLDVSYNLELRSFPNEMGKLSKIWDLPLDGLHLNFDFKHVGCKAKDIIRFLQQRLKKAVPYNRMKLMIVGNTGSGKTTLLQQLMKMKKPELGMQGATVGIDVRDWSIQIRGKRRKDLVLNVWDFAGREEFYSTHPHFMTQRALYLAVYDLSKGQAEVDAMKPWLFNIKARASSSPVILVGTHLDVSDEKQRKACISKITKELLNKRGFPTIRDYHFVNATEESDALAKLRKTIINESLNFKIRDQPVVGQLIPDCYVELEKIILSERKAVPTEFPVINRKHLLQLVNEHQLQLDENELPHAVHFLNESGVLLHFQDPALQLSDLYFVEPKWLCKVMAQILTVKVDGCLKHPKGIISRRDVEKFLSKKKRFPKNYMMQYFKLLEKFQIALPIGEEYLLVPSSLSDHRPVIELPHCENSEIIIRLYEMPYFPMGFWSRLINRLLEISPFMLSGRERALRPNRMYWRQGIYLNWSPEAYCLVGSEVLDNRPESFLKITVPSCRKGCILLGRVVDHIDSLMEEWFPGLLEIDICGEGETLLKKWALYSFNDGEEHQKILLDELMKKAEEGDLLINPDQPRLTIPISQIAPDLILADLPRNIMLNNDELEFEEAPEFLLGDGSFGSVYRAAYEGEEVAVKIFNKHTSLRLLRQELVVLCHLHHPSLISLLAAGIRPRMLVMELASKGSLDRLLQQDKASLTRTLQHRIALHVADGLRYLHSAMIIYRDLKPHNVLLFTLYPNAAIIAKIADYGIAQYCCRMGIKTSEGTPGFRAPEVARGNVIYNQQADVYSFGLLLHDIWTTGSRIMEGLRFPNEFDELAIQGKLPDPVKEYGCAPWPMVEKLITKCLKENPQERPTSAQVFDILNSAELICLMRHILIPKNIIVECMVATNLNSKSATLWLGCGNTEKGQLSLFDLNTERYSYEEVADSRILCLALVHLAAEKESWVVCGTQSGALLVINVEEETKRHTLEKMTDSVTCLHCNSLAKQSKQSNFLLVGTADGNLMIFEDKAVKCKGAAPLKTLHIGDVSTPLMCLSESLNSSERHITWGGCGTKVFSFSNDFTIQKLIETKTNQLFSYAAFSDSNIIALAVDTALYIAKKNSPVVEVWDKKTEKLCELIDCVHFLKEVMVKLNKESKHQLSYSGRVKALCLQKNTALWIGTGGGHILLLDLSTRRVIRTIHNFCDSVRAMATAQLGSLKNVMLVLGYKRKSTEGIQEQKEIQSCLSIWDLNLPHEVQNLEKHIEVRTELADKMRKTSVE

| Compound | Exposure in mouse brains [1] | Inhibition of the A2016T mutant (LRRK2[A2016T]) | inhibition at 1 µM (PHKã1(PBK)) | inhibition at 1 µM (CAMKKβ) | inhibition at 1 µM (TSSK1) | inhibition at 1 µM (NUAK1) | Ser910 and Ser935 dephosphorylation of LRRK2 in kidney and spleen (endogenous LRRK2; oral gavage 10 mg/kg, 10 mg/kg) | Ser910 and Ser935 dephosphorylation of LRRK2 in kidney and spleen (endogenous LRRK2; oral gavage 50 mg/kg) | Inhibition of LRRK2 Ser910 or Ser935 phosphorylation in the brain (endogenous LRRK2; oral gavage 10 or 50 mg/kg) | inhibition at 1 µM (CHK2) | Concentration inducing dephosphorylation of Ser910 and 935 (GFP-LRRK2[A2016T]) |
| --- | --- | --- | --- | --- | --- | --- | --- | --- | --- | --- | --- |
| COc1cc(N2CCOCC2)ccc1Nc1ncc(F)c(Nc2ccccc2NS(C)(=O)=O)n1 [CZC-25146] | neither compound is able to achieve good exposure in mouse brains | – | – | – | – | – | – | – | – | – | – |
| COc1cc(C(=O)N2CCC(N3CCN(C)CC3)CC2)ccc1Nc1ncc2c(n1)N(C)c1ccccc1C(=O)N2C [LRRK2-IN-1] | neither compound is able to achieve good exposure in mouse brains | dramatic resistance | – | – | – | – | – | – | – | – | – |
| COc1cc(N2CCC(N3CCN(C)CC3)CC2)ccc1Nc1ncc(Cl)c(Nc2ccccc2S(=O)(=O)C(C)C)n1 [TAE684, 5-chloro-N4-(2-(isopropylsulfonyl)phenyl)-N2-(2-methoxy-4-(4-(4-methyl-piperazin-1-yl)piperidin-1-yl)phenyl)pyrimidine-2,4-diamine] | – | relatively insensitive to the A2016T mutation; also recorded: maintains significant inhibition | > 90% | > 90% | > 90% | > 90% | slightly lower effect; also recorded: substantially inhibits | complete Ser910 and Ser935 dephosphorylation | no inhibition; also recorded: does not inhibit phosphorylation; also recorded: not in brain | > 90% | 1 to 3 µM |
